# Measured values from US5780265A, “Kunitz type plasma kallikrein inhibitors” (Genentech, Inc., priority 1995, dated 1998).
# Where two headings read alike, the source gives them in different places. Bridges are numbered along the chain shown (N, C = ends). Where no end group is shown, it is not given here.
# How the values were obtained:
# plasma kallikrein [1] = molecular target: T1, plasma kallikrein (Homo sapiens, UniProt P03952); experiment: Apparent equilibrium dissociation constant (Ki*) with plasma kallikrein; format: biochemical
# T1 construct: Human plasma kallikrein and Factor XIIa were purchased; purchased Enzyme Research Laboratories, Inc. (South Bend, Ind.)
# T1 sequence (P03952 391-638 limits assumed): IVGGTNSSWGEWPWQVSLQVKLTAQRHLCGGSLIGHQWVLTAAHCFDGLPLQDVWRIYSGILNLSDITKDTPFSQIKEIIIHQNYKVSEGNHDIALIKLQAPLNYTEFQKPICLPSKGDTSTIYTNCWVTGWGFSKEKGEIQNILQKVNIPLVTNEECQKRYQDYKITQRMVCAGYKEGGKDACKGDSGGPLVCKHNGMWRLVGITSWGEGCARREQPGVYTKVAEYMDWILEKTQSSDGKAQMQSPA
# T1 sequence (P03952 20-390 limits assumed): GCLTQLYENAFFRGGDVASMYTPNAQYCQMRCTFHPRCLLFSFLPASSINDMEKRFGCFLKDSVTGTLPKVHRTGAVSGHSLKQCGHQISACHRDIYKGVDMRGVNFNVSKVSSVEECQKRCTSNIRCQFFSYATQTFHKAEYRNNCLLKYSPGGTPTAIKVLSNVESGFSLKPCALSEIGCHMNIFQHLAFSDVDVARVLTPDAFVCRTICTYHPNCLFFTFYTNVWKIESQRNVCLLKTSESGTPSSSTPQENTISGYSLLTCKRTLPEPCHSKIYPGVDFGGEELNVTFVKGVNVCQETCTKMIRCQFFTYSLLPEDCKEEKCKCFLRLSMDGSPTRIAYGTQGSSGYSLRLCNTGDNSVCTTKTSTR
# Description: Reactions (200 μL) were carried out in microtiter plates and the rate substrate (0.7 mM S2302) was monitored at 405 nm following a 1.5 h incubation. Plots of the fractional rate versus inhibitor concentration were fit by nonlinear regression analysis to Equation 1 to determine apparent equilibrium dissociation constants (Ki *):
# Factor XIa = molecular target: T2, Factor XIa (Homo sapiens, UniProt P03951); experiment: Apparent equilibrium dissociation constant (Ki*) with FXIa; format: biochemical; settings: at least 3 independent measurements
# T2 construct: purchased Haematologic Technologies Inc. (Essex Jct., Vt.)
# T2 sequence (P03951 388-625 limits assumed): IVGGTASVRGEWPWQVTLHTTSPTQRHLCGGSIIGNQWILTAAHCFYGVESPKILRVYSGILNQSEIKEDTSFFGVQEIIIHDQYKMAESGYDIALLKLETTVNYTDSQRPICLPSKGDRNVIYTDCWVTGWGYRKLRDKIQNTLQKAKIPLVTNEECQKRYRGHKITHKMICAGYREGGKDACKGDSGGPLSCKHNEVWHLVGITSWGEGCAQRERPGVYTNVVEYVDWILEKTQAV
# T2 sequence (P03951 19-387 limits assumed): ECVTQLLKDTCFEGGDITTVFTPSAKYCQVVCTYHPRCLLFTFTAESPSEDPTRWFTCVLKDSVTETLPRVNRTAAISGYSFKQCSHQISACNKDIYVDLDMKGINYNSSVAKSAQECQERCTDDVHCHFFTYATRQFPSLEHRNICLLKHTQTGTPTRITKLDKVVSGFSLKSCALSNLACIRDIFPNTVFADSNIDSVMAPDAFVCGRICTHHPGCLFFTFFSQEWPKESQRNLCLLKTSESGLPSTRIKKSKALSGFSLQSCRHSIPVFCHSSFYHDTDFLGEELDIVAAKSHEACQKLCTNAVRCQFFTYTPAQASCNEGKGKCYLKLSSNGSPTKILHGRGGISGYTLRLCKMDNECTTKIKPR
# Description: Serine proteases (1 to 20 nM) were assayed in the presence of 100 nM inhibitor. […] The degree to which FXIa was inhibited by selected inhibitors including the consensus mutants was further investigated by measuring the Ki *.
# plasma kallikrein [2] = settings: Seymour et al. 1994; read-out: Ki for plasma kallikrein (literature); cited from earlier work
# [3] = 25° C., pH 7.5, 0.7 mM S2302, 1.5 h incubation, at least 3 independent measurements, read-out: Plasma Kallikrein Ki*
Substance,Ki (plasma kallikrein [1]; [3]),Ki (Factor XIa),Ki (plasma kallikrein [1]; read-out: Ki* for plasma kallikrein),Ki (plasma kallikrein [2])
"VREVCSEQAEDGHCRAAHPRWYFDVTEGKCAPFVYGGCGGNRNNFDTEEYCAAVCGSA (disulfide 5-55, 14-38, 30-51) [KALI-DV]",0.043 ± 0.034 nM,1.3 ± 1.4 nM,,
"VREVCSEQAEDGHCRAAHPRWYFDVTEGKCAPFYYGGCGGNRNNFDTEEYCAAVCGSA (disulfide 5-55, 14-38, 30-51) [KALI-DY]",,8.2 ± 3.5 nM,0.015 ± 0.014 nM,
"VREVCSEQAEEGHCRAAHPRWYFDVTEGKCAPFFYGGCGGNRNNFDTEEYCAAVCGSA (disulfide 5-55, 14-38, 30-51) [KALI-E]",0.103 ± 0.054 nM,4.5 ± 4 nM,,
"VREVCSEQAEEGHCRAAHPRWYFDVTEGKCAPFYYGGCGGNRNNFDTEEYCAAVCGSA (disulfide 5-55, 14-38, 30-51) [KALI-EY]",0.98 ± 0.075 nM,7.3 ± 5.5 nM,,
"VREVCSEQAEPGHCRAAHPRWYFDVTEGKCAPFFYGGCGGNRNNFDTEEYCAAVCGSA (disulfide 5-55, 14-38, 30-51) [KALI-P]",0.2 ± 0.099 nM,13.8 ± 17.4 nM,,
"VREVCSEQAEPGHCRAAHPRWYFDVTEGKCAPFVYGGCGGNRNNFDTEEYCAAVCGSA (disulfide 5-55, 14-38, 30-51) [KALI-PV]",0.166 ± 0.07 nM,4.1 ± 5.2 nM,,
"VREVCSEQAEPGHCRAAHPRWYFDVTEGKCAPFYYGGCGGNRNNFDTEEYCAAVCGSA (disulfide 5-55, 14-38, 30-51) [KALI-PY]",0.136 ± 0.081 nM,11.7 ± 11.9 nM,,
ecotin: a 142 residue protein from E. coli,,,,~0.16 nM
